The values that follow come from patent US11192932B2, “Heparin-binding domain of IGFBP-2 in the treatment of metabolic disorders” (Amolyt Pharma, priority 2018, dated 2021).

For one assay, the system named is Akt. The experiment in a line: Akt phosphorylation (immunoblot anti-Akt pS473) in C2C12 myotubes. The class given is cell-based, mouse. The following applies: peptide incubated 8 hours (FIG. 6). As to the method: In particular: HBD1 SEQ ID NO: 73 (C18:0-HLGLEEPKK). The Akt pathway is utilized by both insulin and IGF1 to ultimately induce GLUT4 translocation to the cell membrane to facilitate the uptake and metabolism of glucose.
(§1) For signaling studies the cells were prepared the same way except 6-well plates were used. After 6 days incubation in differentiating medium, the cells were washed with serum-free medium. The various treatments were then added in serum free medium containing 0.1% BSA. HBD1 peptides were added and incubated for 8 hours. When utilizing IGF-I, incubation was for 15 minutes after IGF-1 addition. Following incubation the cells were lysed in RIPA buffer and sonicated. The cell lysate was centrifuged and the supernatant analyzed for either Akt or AMPK by SDS PAGE using a 10% gel followed by immunoblotting with the appropriate antibody.
To examine the intracellular transduction pathways utilized by the HBD1 peptides, following treatment with HBD1 peptide SEQ ID NO: 73 (C18:0-HLGLEEPKK), cell lysate proteins were separated by SDS PAGE and immunoblotted with anti-Akt pS473 antibodies.

The test system of assay [1] is ob/ob mice. The experiment in a line: Intraperitoneal glucose tolerance test (IPGTT) in ob/ob mice after 15 days of treatment. The format is in vivo, mouse. The settings on record: 3 mg/kg subcutaneously twice daily for 15 days, overnight fasted, glucose 1 g/kg i.p., vs vehicle. As to the method: Data shown are blood glucose levels (Mean±SEM) 45 min after intraperitoneal glucose tolerance test (IPGTT). (n=5 in each group; ***: p value <0.001).
After being acclimatized 7 days to the laboratory conditions, nine-week-old male B6. V-Lepob/J. mice (Charles River) were subcutaneously administered with vehicle (NaCl 0.9%) or with a peptide as set forth in SEQ ID NO: 73 (C18:0-HLGLEEPKK) at 3 mg/kg (n=5 animals for each group) twice daily for 15 days. On day 15, fasted (overnight) mice were injected intraperitoneally with glucose at 1 g/kg. Plasma blood glucose (expressed as mmol/L) was recorded at 45 minutes post glucose injection.

In assay [2] the test system is ob/ob mice. The experiment in a line: Glucose telemetry and IPGTT in glucose-telemetered ob/ob mice, 28 days of treatment. The format is in vivo, mouse. The following applies: for glucose intolerance (3-hour IPGTT profile): glucose telemetered ob/ob mice, 1 and 3 mg/kg s.c. twice daily, 28 days, glucose 1 g/kg i.p., vs vehicle; for 16-hour mean blood glucose levels: day 27, normal fed conditions, vs baseline (Day -1) and vehicle. As to the method: FIG. 2A: 3-hour intraperitoneal glucose tolerance test profiles after 28 days of acylated HBD1 (3-11) fragment treatment. (n=5-8 in each group; p value <0.0001 at both doses vs VHL), Two-way ANOVA with multiple comparison, ****p<0.0001; FIG. 2B: fasting blood glucose levels (average value within 10 min prior to IPGTT) after 28 days of acylated HBD1 (3-11) fragment treatment. (n=5-8 in each group; p value <0.005 at the 3 mg/kg dose vs VHL), Unpaired two-tailed t-test vs VHL, ***p<0.005; FIG. 2C: Areas under the curve of the 3-hour intraperitoneal glucose tolerance test profiles after 28 days of acylated HBD1 (3-11) fragment treatment. (n=5-8 in each group), Unpaired two-tailed t-test vs VHL,*p<0.05, ****p<0.0001.
FIG. 3A: 16-hour mean blood glucose levels before (Day −1) and after 27 days of acylated HBD1 (3-11) fragment treatment. (n=5-8 in each group; **p value <0.001 at the 3 mg/kg dose vs VHL); FIG. 3B: Change from baseline in 16-hour mean blood glucose level after 27 days of acylated HBD1 (3-11) fragment treatment. (n=5-8 in each group; **p value <0.01 at the 3 mg/kg dose vs VHL).
To further assess the effects of HBD1 peptides on glucose and insulin metabolisms, basal blood glucose and glucose response to an intraperitoneal glucose tolerance test (IPGTT) were assessed in glucose-telemetered obese ob/ob mice after twice daily administration of HBD peptides for 28 consecutive days. Implantation of glucose telemetry device (HD-XG, Data Science International) was carried out according to known protocols.
A dose of HBD peptide fragment of SEQ ID NO: 73 (C18:0-HLGLEEPKK) was administered twice daily at 8-hour±1 hour interval between the two daily administrations. 24 V-Lepob/J (Ob/Ob) male mice (The Jackson Laboratory, Farmington, Conn. USA) were administered subcutaneously with vehicle (NaCl 0.9%) (Control group) or with the peptide at 1 and 3 mg/kg (Test groups) (n=5-8 animals for each group) twice daily for 28 days. The first day of dosing was designated as Day 1. Bolus injection was carried out using a sterile syringe and the needle was introduced subcutaneously, 2 to 4 injection sites were used in rotation. The hair of the animals on the injection area was clipped prior to the first injection and then as necessary during the treatment period. The volume administered was 5 mL/kg/administration. Individual dose volumes were calculated using the latest body weight. On day 27, 16-hour mean blood glucose levels were assessed in normal fed conditions. On day 28, fasted (4 hours) mice were injected intraperitoneally with glucose at 1 g/kg. Plasma blood glucose profile (expressed as mg/dL) was recorded every minute up to 3-hour post glucose injection.
Intraperitoneal glucose tolerance test (IPGTT)—On the morning of the IGPTT day (day 28), 2-hour fasted animals were treated with vehicle or with the HBD fragment. Glucose solution was administered 2 hours±15 minutes post-dosing (vehicle or a peptide as set forth in SEQ ID NO: 73 (C18:0-HLGLEEPKK). Blood glucose was monitored from 10 minutes before (fasting condition) to 3-hour post-glucose challenge. Food was re-introduced 4 hours post-glucose challenge. The second treatment of the day (the HBD fragment or vehicle) was performed 2 hours after food re-introduction.

The subject of a further assay is AMPK. The experiment in a line: AMPK phosphorylation (immunoblot anti-pAMPK T172) in C2C12 myotubes. The format is cell-based, mouse. The following applies: C2C12 myotubes, peptide incubated 8 hours (FIG. 7). As to the method:
In particular: HBD1 SEQ ID NO: 73 (C18:0-HLGLEEPKK). The AMPK pathway is both insulin and IGF1 independent, but acts ultimately to induce GLUT4 translocation to the cell membrane to facilitate the uptake and metabolism of glucose.
as §1
To examine further the intracellular transduction pathways utilized by the HBD1 peptides, following treatment with HBD1 peptide SEQ ID NO: 73 (C18:0-HLGLEEPKK), cell lysate proteins, were separated by SDS PAGE and immunoblotted with anti-pAMPK T172.
(In western blotting, separated proteins are transferred to a membrane and probed.)

Where [3] appears, read: listed as acylated HBD1 (3-11) fragment.

Entries after “also recorded” stand apart in the source; their conditions may differ. No end group written: not given here. *: point of attachment. Stearoyl = CCCCCCCCCCCCCCCCCC(=O)*

For “C18:0-HLGLEEPKK (Stearoyl-HLGLEEPKK) [SEQ ID NO: 73]”, the “phosphorylated Akt (pS473)” value with Akt is on record as “dose-related increase in phosphorylated Akt; also recorded: dose-dependent phosphorylation (activation) of the Akt pathway”. The “blood glucose levels 45 min after intraperitoneal glucose tolerance test (IPGTT)” value in the assay on ob/ob mice [1] was “reduced the plasma glucose levels”; with ob/ob mice [1] (setting [3]), “improves glucose intolerance”. Further, the “glucose intolerance (3-hour IPGTT profile)” value in the assay with ob/ob mice [2] was “improved glucose intolerance in a dose-dependent manner”; in the assay on ob/ob mice [2] (setting [3]), “improves glucose intolerance”. Also, the “effect on fasting glucose levels and glucose excursion following IPGTT at the high dose” value in the assay on ob/ob mice [2] (ob/ob mice, 3 mg/kg twice daily, 4 weeks) is “marked effect”. In the assay on ob/ob mice [2] (ob/ob mice, after 4 weeks (28 days), 1 and 3 mg/kg twice daily), the “glucose excursion following IPGTT” value is given as “decreased”. Besides, in the assay on ob/ob mice [2] (ob/ob mice, after 4 weeks (28 days), average within 10 min prior to IPGTT, 1 and 3 mg/kg twice daily), the fasting glucose levels entry is listed as “decreased fasting glucose levels”. Besides, the “16-hour mean blood glucose levels” value is reported as “markedly decrease 16-hour average blood glucose levels” in the assay on ob/ob mice [2] (ob/ob mice) and “improves glucose intolerance” in the assay with ob/ob mice [2] (ob/ob mice, listed as acylated HBD1 (3-11) fragment). In addition, the “phosphorylated AMPK (T172)” value in the assay with AMPK is recorded as “dose-dependent increase in phosphorylated AMPK; also recorded: dose-dependent phosphorylation (activation) of the AMPK pathway”.
